The source of these data is PubChem BioAssay AID256 (DTP/NCI, 2004).

Structures are written as SMILES. “And” between values parts separate entries of the source, which are not always exact repeats. Identical values can stand only once. Toxic doses and inconclusive results are not listed.

The subject of this assay is CD2F1 mice, L1210 leukemia ip, survival T/C. Nature of the assay: NCI In Vivo Anticancer Drug Screen. Data for tumor model L1210 Leukemia (intraperitoneal) in CD2F1 (CDF1) mice. The conditions noted are these: higher = longer survival. The gist of the method: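 Mice carrying a transplanted tumor received test compound or vehicle alone. The value is the measurement in the treated group divided by that in the vehicle-treated control group.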

[1] abbreviates: endpoint: mean survival time, dose: 100.0 mg/kg/injection, schedule: Q04DX003 (ip), vehicle: saline with Tween-80.
Where [2] appears, read: endpoint: mean survival time, dose: 200.0 mg/kg/injection, schedule: Q04DX003 (ip), vehicle: saline with Tween-80.
The mark [3] stands for this setting: endpoint: mean survival time, dose: 100.0 mg/kg/injection, schedule: Q04DX003 (ip), vehicle: Klucel (hydroxypropylcellulose) (HPC).
The mark [4] stands for this setting: endpoint: mean survival time, dose: 200.0 mg/kg/injection, schedule: Q04DX003 (ip), vehicle: Klucel (hydroxypropylcellulose) (HPC).
[5] abbreviates: endpoint: mean survival time, dose: 400.0 mg/kg/injection, schedule: Q04DX003 (ip), vehicle: saline with Tween-80.
The mark [6] stands for this setting: endpoint: mean survival time, dose: 25.0 mg/kg/injection, schedule: Q01DX009 (ip), vehicle: saline with Tween-80.
[7] abbreviates: endpoint: mean survival time, dose: 50.0 mg/kg/injection, schedule: Q01DX009 (ip), vehicle: saline with Tween-80.
[8] abbreviates: endpoint: mean survival time, dose: 100.0 mg/kg/injection, schedule: Q01DX009 (ip), vehicle: saline with Tween-80.

For `Cc1cc(C)[nH]c(=S)n1.[Pt]`, the T/C by setting is: (endpoint: mean survival time, dose: 3.12 mg/kg/injection, schedule: Q04DX003 (ip), vehicle: saline with Tween-80) 104 % of control; (endpoint: mean survival time, dose: 3.12 mg/kg/injection, schedule: Q04DX003 (ip), vehicle: saline) 120 % of control and 108 % of control; (endpoint: mean survival time, dose: 6.25 mg/kg/injection, schedule: Q04DX003 (ip), vehicle: saline with Tween-80) 102 % of control; (endpoint: mean survival time, dose: 6.25 mg/kg/injection, schedule: Q04DX003 (ip), vehicle: saline) 117 % of control and 96 % of control; (endpoint: mean survival time, dose: 12.5 mg/kg/injection, schedule: Q04DX003 (ip), vehicle: saline with Tween-80) 101 % of control; (endpoint: mean survival time, dose: 12.5 mg/kg/injection, schedule: Q04DX003 (ip), vehicle: saline) 96 % of control. In addition, the T/C (endpoint: mean survival time, dose: 25.0 mg/kg/injection, schedule: Q04DX003 (ip), vehicle: saline with Tween-80) is 98 % of control; the T/C (endpoint: mean survival time, dose: 25.0 mg/kg/injection, schedule: Q04DX003 (ip), vehicle: saline) was 102 % of control; the T/C (endpoint: mean survival time, dose: 50.0 mg/kg/injection, schedule: Q04DX003 (ip), vehicle: saline with Tween-80) is 101 % of control; the T/C (endpoint: mean survival time, dose: 50.0 mg/kg/injection, schedule: Q04DX003 (ip), vehicle: saline) was 96 % of control and 97 % of control; the T/C under setting [1] was 101 % of control; the T/C (endpoint: mean survival time, dose: 100.0 mg/kg/injection, schedule: Q04DX003 (ip), vehicle: saline) is 120 % of control and 96 % of control. Moreover, the T/C by setting is: under setting [2], 107 % of control; (endpoint: mean survival time, dose: 200.0 mg/kg/injection, schedule: Q04DX003 (ip), vehicle: saline) 106 % of control.

`O=C1C(=O)c2ccccc2-c2ccccc21.O=C1C(=O)c2ccccc2-c2ccccc21.[Hg]`: the T/C (endpoint: mean survival time, dose: 1.56 mg/kg/injection, schedule: Q04DX002 (ip), vehicle: saline with Tween-80) is 87 % of control; the T/C (endpoint: mean survival time, dose: 3.13 mg/kg/injection, schedule: Q04DX002 (ip), vehicle: saline with Tween-80) is 98 % of control; the T/C (endpoint: mean survival time, dose: 6.25 mg/kg/injection, schedule: Q04DX002 (ip), vehicle: saline with Tween-80) is 113 % of control.

Take `COc1cc(NC(N)=O)ccc1Nc1c2ccc(N)cc2nc2cc(N)ccc12`: the T/C reads like this: (endpoint: mean survival time, dose: 0.5 mg/kg/injection, schedule: Q01DX009 (ip), vehicle: saline) 100 % of control; (endpoint: mean survival time, dose: 1.0 mg/kg/injection, schedule: Q01DX009 (ip), vehicle: saline) 98 % of control; (endpoint: mean survival time, dose: 2.0 mg/kg/injection, schedule: Q01DX009 (ip), vehicle: saline) 102 % of control; (endpoint: mean survival time, dose: 4.0 mg/kg/injection, schedule: Q01DX009 (ip), vehicle: saline) 102 % of control; (endpoint: mean survival time, dose: 8.0 mg/kg/injection, schedule: Q01DX009 (ip), vehicle: saline) 103 % of control; (endpoint: mean survival time, dose: 16.0 mg/kg/injection, schedule: Q01DX009 (ip), vehicle: saline) 111 % of control.

In the case of `CCOC(=O)c1cnc2c(cnn2CC)c1OCc1ccccc1`, the T/C was 101 % of control under setting [3]; 104 % of control under setting [4]; 108 % of control (endpoint: mean survival time, dose: 400.0 mg/kg/injection, schedule: Q04DX003 (ip), vehicle: Klucel (hydroxypropylcellulose) (HPC)).

`CCCCCCCCCCOC(=O)Nc1cccc(O)c1`: the T/C was 95 % of control under setting [1], 95 % of control under setting [2] and 98 % of control under setting [5].

For the compound `O=C1NCC(Br)C(=O)N1` (stereo unspecified), the T/C runs as follows: (endpoint: mean survival time, dose: 6.25 mg/kg/injection, schedule: Q01DX009 (ip), vehicle: saline + Tween-80 + alcohol) 102 % of control; (endpoint: mean survival time, dose: 12.5 mg/kg/injection, schedule: Q01DX009 (ip), vehicle: saline + Tween-80 + alcohol) 100 % of control and 109 % of control; (endpoint: mean survival time, dose: 12.5 mg/kg/injection, schedule: Q01DX009 (ip), vehicle: saline with Tween-80) 93 % of control; (endpoint: mean survival time, dose: 25.0 mg/kg/injection, schedule: Q01DX009 (ip), vehicle: saline + Tween-80 + alcohol) 93 % of control and 100 % of control; under setting [6], 96 % of control; (endpoint: mean survival time, dose: 50.0 mg/kg/injection, schedule: Q01DX009 (ip), vehicle: saline + Tween-80 + alcohol) 102 % of control. Also, the T/C by setting is: under setting [7], 94 % of control; (endpoint: mean survival time, dose: 100.0 mg/kg/injection, schedule: Q01DX009 (ip), vehicle: saline + Tween-80 + alcohol) 101 % of control and 105 % of control; under setting [8], 102 % of control; (endpoint: mean survival time, dose: 200.0 mg/kg/injection, schedule: Q01DX009 (ip), vehicle: saline + Tween-80 + alcohol) 113 % of control and 100 % of control; (endpoint: mean survival time, dose: 200.0 mg/kg/injection, schedule: Q01DX009 (ip), vehicle: saline with Tween-80) 90 % of control; (endpoint: mean survival time, dose: 400.0 mg/kg/injection, schedule: Q01DX009 (ip), vehicle: saline + Tween-80 + alcohol) 86 % of control.

As for `O=S(=O)(F)c1cc(Cl)c(O)c(S(=O)(=O)F)c1`, the T/C reads like this: (endpoint: mean survival time, dose: 25.0 mg/kg/injection, schedule: Q01DX009 (ip), vehicle: Klucel (hydroxypropylcellulose) (HPC)) 97 % of control; (endpoint: mean survival time, dose: 50.0 mg/kg/injection, schedule: Q01DX009 (ip), vehicle: Klucel (hydroxypropylcellulose) (HPC)) 103 % of control; (endpoint: mean survival time, dose: 100.0 mg/kg/injection, schedule: Q01DX009 (ip), vehicle: Klucel (hydroxypropylcellulose) (HPC)) 101 % of control.

As for `Cc1c2cnccc2c(C)c2c1c1ccccc1n2CCCCCCCl`, the T/C was 91 % of control under setting [1] and 101 % of control under setting [2].

As for `O=C(C[n+]1cc2ccccc2cc1Cl)c1ccccc1`, the T/C is, setting by setting: under setting [3], 97 % of control; under setting [4], 88 % of control.

As for `O=C(NC(Cc1ccc(I)cc1)C(=O)O)c1ccc(Br)cc1` (stereo unspecified), the T/C is, setting by setting: (endpoint: median survival time, dose: 25.0 mg/kg/injection, schedule: Q01DX009 (ip), vehicle: sodium bicarbonate) 98 % of control; (endpoint: median survival time, dose: 50.0 mg/kg/injection, schedule: Q01DX009 (ip), vehicle: sodium bicarbonate) 101 % of control; (endpoint: median survival time, dose: 100.0 mg/kg/injection, schedule: Q01DX009 (ip), vehicle: sodium bicarbonate) 101 % of control; (endpoint: median survival time, dose: 200.0 mg/kg/injection, schedule: Q01DX009 (ip), vehicle: sodium bicarbonate) 96 % of control.

For `O=C(O)CSc1nc2ccccc2s1`, the T/C under setting [6] was 96 % of control; the T/C under setting [7] is 95 % of control; the T/C under setting [8] was 97 % of control; the T/C under setting [1] is 93 % of control; the T/C under setting [2] was 94 % of control; the T/C under setting [5] was 96 % of control.

As for `NC1CCCCC1N.O=S(=O)([O-])c1cccc(S(=O)(=O)[O-])c1.[Pt+4]`, the T/C by setting is: (endpoint: median survival time, dose: 6.25 mg/kg/injection, schedule: Q04DX003 (ip), vehicle: saline with Tween-80) 166 % of control; (endpoint: median survival time, dose: 12.5 mg/kg/injection, schedule: Q04DX003 (ip), vehicle: saline with Tween-80) 237 % of control and 370 % of control; (endpoint: median survival time, dose: 25.0 mg/kg/injection, schedule: Q04DX003 (ip), vehicle: saline with Tween-80) 296 % of control and 325 % of control.

Regarding `CCOC(=O)COC(=O)CN1C(=O)c2ccccc2C1=O`, the T/C runs as follows: (endpoint: mean survival time, dose: 50.0 mg/kg/injection, schedule: Q01DX001 (ip), vehicle: water) 93 % of control; (endpoint: mean survival time, dose: 100.0 mg/kg/injection, schedule: Q01DX001 (ip), vehicle: water) 98 % of control; (endpoint: mean survival time, dose: 200.0 mg/kg/injection, schedule: Q01DX001 (ip), vehicle: water) 104 % of control; (endpoint: mean survival time, dose: 400.0 mg/kg/injection, schedule: Q01DX001 (ip), vehicle: water) 94 % of control.

Turning to `CC(C(=O)O)C(=O)O.[NH-]CC[NH-].[Pt+2]`, the T/C (endpoint: mean survival time, dose: 60.0 mg/kg/injection, schedule: Q04DX003 (ip), vehicle: water) was 116 % of control.

Turning to `CNc1ccc(Br)c2c1C(=O)c1ccccc1C2=O`, the T/C by setting is: under setting [1], 97 % of control; under setting [2], 101 % of control; under setting [5], 95 % of control.

`N#CSCc1ccc(Cl)c(CSC#N)c1`: the T/C is 108 % of control (endpoint: mean survival time, dose: 18.8 mg/kg/injection, schedule: Q01DX009 (ip), vehicle: saline); 103 % of control (endpoint: mean survival time, dose: 18.8 mg/kg/injection, schedule: Q04DX003 (ip), vehicle: saline); 108 % of control (endpoint: mean survival time, dose: 37.5 mg/kg/injection, schedule: Q01DX009 (ip), vehicle: saline); 105 % of control (endpoint: mean survival time, dose: 37.5 mg/kg/injection, schedule: Q04DX003 (ip), vehicle: saline); 96 % of control (endpoint: mean survival time, dose: 75.0 mg/kg/injection, schedule: Q01DX001 (ip), vehicle: saline); 108 % of control (endpoint: mean survival time, dose: 75.0 mg/kg/injection, schedule: Q01DX009 (ip), vehicle: saline). For the same compound, the T/C (endpoint: mean survival time, dose: 75.0 mg/kg/injection, schedule: Q04DX003 (ip), vehicle: saline) is 109 % of control.
